Source: patent US12281304B2, “Compositions and methods for treating and preventing muscular disorders and dystrophies, steroid side effects, and inflammation” (Children's National Medical Center, priority 2018, dated 2025)

System: miRNAs in diaphragm muscle of mdx mice
Experiment: TaqMan low-density array (TLDA) miRNA profiling of diaphragm, discovery set (prophylactic mdx trial)
Type: in vivo, mouse
Conditions: mdx diaphragm, vs untreated mdx; Pred 5 mg/kg, Vam 15 mg/kg
Excerpt: Archival muscle samples (diaphragm) from two separate preclinical studies were obtained, with each trial showing a significant benefit from both prednisolone and vamorolone drug treatments (23). Prednisolone was used because it is the active form of prednisone, the current DMD standard of care. The first, “discovery set” of diaphragm muscles was from a prophylactic trial design where 2-week old (postnatal day 15) mdx or wild type control mice received oral dosing for 6 weeks with vehicle (cherry syrup), prednisolone (5 mg/kg), or vamorolone (15 mg/kg) as previously reported (23). The second, “validation set” of diaphragm muscles was from an extended trial in older mice where mdx or wild type mice were subjected to treadmill running to unmask mild phenotypes. Mice in this validation set were treated with either vehicle, prednisolone (5 mg/kg) or vamorolone (45 mg/kg) for four months beginning at two months of age (23). At the endpoint of each trial, diaphragm muscles were harvested and frozen in liquid nitrogen-cooled isopentane.
We extracted total RNA from 5 diaphragm muscles per treatment group in the discovery set of samples from 8-week old mice. RNA was extracted using a modified TRIzol protocol with isopropanol precipitation at −20° C. overnight. This RNA was reverse transcribed to cDNA using a High Capacity cDNA Reverse Transcription Kit with RNase Inhibitor (ThermoFisher; Carlsbad, Calif.), with miRNA-specific Megaplex RT Primers, Rodent Pools Set version 3.0 (ThermoFisher; Carlsbad, Calif.). Levels of each of the miRNAs were profiled in the discovery set using TAQMAN Array Rodent MiRNA A+B Cards Set v3.0 (ThermoFisher; Carlsbad, Calif.).
In the discovery set experiments, levels of each miRNA were quantified in TaqMan low-density arrays using ThermoFisher Cloud software with the Relative Quantification Application (ThermoFisher; Carlsbad, Calif.) tool. Data was analyzed by ANOVA with post-hoc comparison of each group to the mdx vehicle-treated group. […] A P-value of P≤0.05 was set as the significance threshold, without adjustment for multiple comparisons. To reduce false-positive discovery in this setting, an evidence-based approach was used to identify efficacy associated miRNAs where 1) results from the multiple groups were cross-referenced, and 2) all candidate miRNAs identified in this discovery set were then assayed in a separate validation set of mice. For the validation set experiments, levels of each individual miRNA were assayed in samples from a second, independent preclinical trial in adult mdx mice. Data from individual TaqMan Assays was quantified using QuantStudio Real-Time PCR version 1.3 software (Applied Biosystems; Foster City, Calif.). The levels of all miRNAs were normalized to the geometric mean of multiple control genes (60, 70). Comparison of groups was made by ANOVA with Holm-Sidak post-hoc test comparing each group to mdx vehicle.
To visualize behavior of miRNAs within individual mice for each group, heat map images were generated. Heat maps were generated using Rq values of TLDA array data exported from the Relative Quantification Application of the ThermoFisher Cloud software (ThermoFisher; Carlsbad, Calif.) tool. Heat maps of miRNA expression were produced using Hierarchical Clustering Explorer Version 3.5 (at www.cs.umd.edu/hcil/multi-cluster/) produced by the Human Computer Interaction Laboratory (University of Maryland; College Park, Md.).
To examine miRNA expression TaqMan low density qPCR array cards were used to profile approximately 750 miRNAs within diaphragm muscle from a discovery set of mice. Samples for this experiment came from a trial that utilized a prophylactic approach (23). Briefly, mdx mice undergo a stage of peak severity characterized by widespread inflammation and necrosis from approximately 3-8 weeks of age, followed by a recovery stage where mice show milder phenotypes (25). […]

Structure (SMILES): C[C@]12C=CC(=O)C=C1CC[C@@H]1[C@@H]2[C@@H](O)C[C@@]2(C)[C@H]1CC[C@]2(O)C(=O)CO [prednisolone]
- Rq mmu-miR-214-002306: 0.898
- Rq mmu-miR-215-001200: 0.792
- Rq mmu-miR-218-000521: 0.615
- Rq mmu-miR-221-000524: 0.687
- Rq mmu-miR-222-002276: 0.666
- Rq mmu-miR-223-002295: 0.804
- Rq mmu-miR-296-5p-000527: 1.035
- Rq mmu-miR-301a-000528: 0.687
- Rq mmu-miR-301b-002600: 0.862
- Rq mmu-miR-322-001076: 0.67
- Rq mmu-miR-324-3p-002509: 0.713
- Rq mmu-miR-324-5p-000539: 0.859
- Rq mmu-miR-328-000543: 0.888
- Rq mmu-miR-335-3p-002185: 1.354
- Rq mmu-miR-335-5p-000546: 0.756
- Rq mmu-miR-337-3p-002532: 0.853
- Rq mmu-miR-338-3p-002252: 0.469
- Rq mmu-miR-339-5p-002257: 0.652
- Rq mmu-miR-340-3p-002259: 0.581
- Rq mmu-miR-340-5p-002258: 0.602
- Rq mmu-miR-342-3p-002260: 0.407
- Rq mmu-miR-342-5p-002527: 0.529
- Rq mmu-miR-345-5p-002528: 0.713
- Rq mmu-miR-350-002530: 0.796
- Rq mmu-miR-362-3p-002616: 0.936
- Rq mmu-miR-362-5p-002614: 1.241
- Rq mmu-miR-369-3p-000557: 1.192
- Rq mmu-miR-369-5p-001021: 1.211
- Rq mmu-miR-370-002275: 1.975
- Rq mmu-miR-376a#-002482: 1.351
- Rq mmu-miR-376a-001069: 1.484
- Rq mmu-miR-376b#-002451: 1.084
- Rq mmu-miR-376b-002452: 1.602
- Rq mmu-miR-376c-002450: 0.966
- Rq mmu-miR-379-001138: 1.085
- Rq mmu-miR-380-5p-002601: 1.287
- Rq mmu-miR-381-000571: 1.359
- Rq mmu-miR-382-000572: 1.017
- Rq mmu-miR-383-001767: 0.551
- Rq mmu-miR-384-5p-002602: 0.618
- Rq mmu-miR-409-3p-002332: 1.906
- Rq mmu-miR-410-001274: 1.676
- Rq mmu-miR-411-001610: 1.171
- Rq mmu-miR-431-001979: 1.819
- Rq mmu-miR-433-001028: 2.288
- Rq mmu-miR-434-5p-002581: 1.271
- Rq mmu-miR-450a-5p-002303: 1.051
- Rq mmu-miR-455-002455: 0.612
- Rq mmu-miR-467F-002886: 1.346
- Rq mmu-miR-467a-002587: 0.751
- Rq mmu-miR-467c-002517: 0.992
- Rq mmu-miR-483#-002560: 1.367
- Rq mmu-miR-486-001278: 0.917
- Rq mmu-miR-487b-001285: 1.43
- Rq mmu-miR-489-001302: 0.792
- Rq mmu-miR-491-001630: 0.776
- Rq mmu-miR-493-002519: 2.641
- Rq mmu-miR-494-002365: 1.025
- Rq mmu-miR-495-001663: 1.448
- Rq mmu-miR-497-001346: 0.482
- Rq mmu-miR-500-002606: 0.935
- Rq mmu-miR-501-3p-001651: 0.97
- Rq mmu-miR-503-002456: 0.923
- Rq mmu-miR-511-002549: 0.48
- Rq mmu-miR-532-3p-002355: 1.067
- Rq mmu-miR-532-5p-001518: 1.087
- Rq mmu-miR-540-3p-001310: 0.908
- Rq mmu-miR-541-002562: 1.165
- Rq mmu-miR-542-3p-001284: 1.123
- Rq mmu-miR-542-5p-002563: 0.96
- Rq mmu-miR-543-001298: 2.644
- Rq mmu-miR-543-002376: 1.81
- Rq mmu-miR-544-002550: 1.001
- Rq mmu-miR-574-3p-002349: 0.667
- Rq mmu-miR-652-002352: 0.626
- Rq mmu-miR-665-002607: 1.683
- Rq mmu-miR-669a-001683: 0.678
- Rq mmu-miR-673-3p-002449: 1.562
- Rq mmu-miR-673-001954: 2.031
- Rq mmu-miR-674#-001956: 0.857
- Rq mmu-miR-674-002021: 0.846
- Rq mmu-miR-675-3p-001941: 1.258
- Rq mmu-miR-682-001666: 0.702
- Rq mmu-miR-690-001677: 0.744
- Rq mmu-miR-706-001641: 0.75
- Rq mmu-miR-708-002341: 0.636
- Rq mmu-miR-720-001629: 0.905
- Rq mmu-miR-802-002029: 0.245
- Rq mmu-miR-805-002045: 1.066
- Rq mmu-miR-1274a-121150_mat: 1.138
- Rq mmu-miR-1941-3p-121130_mat: 2.166
- Rq mmu-miR-1943-121174_mat: 0.831
- Rq mmu-miR-1944-121189_mat: 0.877
- Rq mmu-miR-2146-241082_mat: 1.113
- Rq mmu-miR-30d-000420: 0.701
- Rq rno-miR-1-002064: 0.911
- Rq rno-miR-7#-001338: 0.751
- Rq rno-miR-7a#-002062: 0.863
- Rq rno-miR-20b-001326: 0.491
- Rq rno-miR-29c#-001818: 0.826
- Rq rno-miR-204#-002076: 0.729
- Rq rno-miR-224-000599: 1.144
- Rq rno-miR-345-3p-002061: 0.859
- Rq rno-miR-351-002063: 1.366
- Rq rno-miR-379#-002081: 1.563
- Rq rno-miR-381-001322: 1.107
- Rq rno-miR-489-001353: 0.626
- Rq rno-miR-664-001323: 0.638
